The record followed here is PubChem BioAssay AID2384 (Southern Research Specialized Biocontainment Screening …, 2010).

In this assay the test system is S. typhi GFP reporter counter-screen, fluorescence, 4 h. The assay can be described thus: inhibitors in S. typhi counter-screen strain, dose response, counter-screen for PhoP regulon inhibitor project, fluorescence, 4 h (AID 2384). A general note: A counterscreen serves to expose hits that act by an unwanted route or on another target.
Consider `CCCCOc1ccc(C(=O)OC2CC(C)N(C)CC2C)cc1` (configuration not stated), for which the IC50 is 26.7 µM.

As for `CCC(/C=C1\Sc2ccc(OC)cc2N1CCO)=C\c1sc2ccc(OC)cc2[n+]1CCO`, the IC50 is 32 µM.

In the case of `CC(=O)Nc1cccc(NC(=O)Nc2ccc(F)cc2F)c1`, the half-inhibitory concentration (IC50) is 142 µM.

In the case of `CCN(CC)CCn1c(=N)n(CC(O)COc2cccc(C)c2)c2ccccc21` (configuration not stated), the IC50 was 23.3 µM.

With `Cc1ccc(C)c(NC(=O)CCC(=O)N/N=C/c2cc([N+](=O)[O-])ccc2O)c1`, the IC50 was 47.1 µM.

`CC(C)(c1ccccc1)c1ccc(OCCCN2CCNCC2)cc1`: the IC50 was 39.7 µM.

In the case of `CC(=O)NC(=S)NNC(=O)c1ccc(Br)cc1`, the IC50 is 29.4 µM.

Regarding `Oc1ccccc1C(Nc1nccs1)c1ccc2cccnc2c1O` (configuration not stated), the IC50 was 18.6 µM.

For `CCCCCc1ccc(OCCCC[n+]2cccc(C)c2)c(CCCCC)c1`, the IC50 was 64.9 µM.

For the molecule `CCn1cc(C(=O)O)c(=O)c2cc(F)c(N3CCN(C(=O)Nc4ccccc4)CC3)cc21`, the IC50 is 50.8 µM.

For `Cc1ccccc1Nc1cc(C)c2c(O)cccc2n1`, the IC50 was 21.9 µM.

Regarding `COc1cc(Br)cc(/C=N/c2ncn[nH]2)c1O`, the IC50 is 61.3 µM.

For `Cc1c(CCOC(=O)C2C3CC4CC(C3)CC2C4)sc[n+]1CC(=O)c1ccc(Br)cc1` (configuration not stated), the IC50 was 25.7 µM.

Regarding `c1ccc(CN2CCC(Nc3nc(-c4ccccc4)nc4ccccc34)CC2)cc1`, the IC50 is 38 µM.

As to `CC[C@H](C)[C@@H](CN[C@H](C)CNC)NCCC(c1ccccc1)c1ccccc1`, the IC50 was 50.2 µM.

With `Oc1cc(Cl)ccc1Oc1ccc(Cl)cc1Cl`, the IC50 is below 0.55 µM.

With `Cc1ccc(NC(=O)CN(C)C2CCCCC2)cc1Br`, the IC50 is 41.6 µM.

Consider `CCOc1cccc(/C=N/NC(=O)c2cc(C3CC3)[nH]n2)c1O`, for which the IC50 is 127 µM.

Take `O=C(Nc1ccc(-c2nc3ccccc3[nH]2)cc1)c1ccco1`: the IC50 is 94 µM.

Regarding `Cc1cc(NC(=O)c2ccccc2)sc1C`, the IC50 is 79.8 µM.

Turning to `Cn1c(-c2ccc3c(c2)OCO3)cnc1NCc1ccc(Cl)cc1`, the IC50 was 76.3 µM.

Consider `Nc1cc(=O)[nH]c(=S)n1-c1cccc(C(F)(F)F)c1`, for which the IC50 was 145 µM.

Take `NC(N)=N/N=C/c1ccc(OCc2ccccc2Cl)cc1`: the IC50 is 39.5 µM.

`CCN(CC)c1ccc(CNc2nc3ccccc3n2CCN2CCCCC2)cc1`: the IC50 was 43.5 µM.

As to `Fc1ccc(Nc2c3c(nc4ccccc24)CCC3)cc1`, the IC50 is 47 µM.

Take `Cc1cccc2sc(N(CCCN(C)C)C(=O)COc3ccc(Cl)cc3)nc12`: the IC50 is 37.6 µM.

`CSc1ccc2c(c1)C(N1CCN(C)CC1)Cc1ccccc1S2` (configuration not stated): the IC50 is 27.5 µM.

As to `CC(C)(C)c1ccc(OCCCNC2CCCC2)cc1`, the IC50 is 77.7 µM.

`CCn1cc(C(=O)NCC(C)C)c(=O)c2cc(F)c(N3CCN(C)CC3)cc21`: the IC50 is 64.4 µM.

Consider `Cc1ccc2nc(N(CCCN(C)C)C(=O)c3sc4ccccc4c3Cl)sc2c1`, for which the IC50 was 24.3 µM.

As for `COc1ccc(C(=O)N/N=C/c2sc3ccccc3c2O)cc1`, the IC50 is 62.6 µM.

`CN1CCN(C(c2ccc(Br)cc2)c2cc(Cl)c3cccnc3c2O)CC1` (configuration not stated): the IC50 was 35.4 µM.

In the case of `O=C(Nc1nnc(C(F)(F)F)s1)c1ccc(Br)s1`, the IC50 is 137 µM.

With `O=[N+]([O-])c1cccc(NNS(=O)(=O)c2ccccc2F)c1`, the IC50 was 18.5 µM.

As for `CN(C)c1ccc(O)c2c1CC1CC3[C@@H](N(C)C)C(=O)C(C(N)=O)=C(O)[C@]3(O)C(=O)C1=C2O` (some centres not stated), the IC50 is 3.9 µM.

Regarding `O=C(Cc1ccc(Br)cc1)c1ccc(O)cc1O`, the IC50 is 107 µM.

As to `COc1ccc(/C=N/Nc2cc(C)nc3ccc(Br)cc23)cc1`, the IC50 was 36.4 µM.

Turning to `C#CCOCCOCCOCCNc1nc(N2CCN(C(=O)[C@H](Cc3ccc(O)cc3)n3cc([C@@H](N)C(C)CC)nn3)CC2)nc(N2CCN(C(=O)[C@H](Cc3cc4ccccc4[nH]3)n3cc([C@@H](N)Cc4ccc(O)cc4)nn3)CC2)n1` (some centres not stated), the IC50 was 32.5 µM.

`C#CCOCCOCCOCCNc1nc(N2CCN(C(=O)CCCCCCCCCCNC(=O)[C@H](CCCCN)n3cc(CCO)nn3)CC2)nc(N2CCN(C(=O)CCCCCCCCCCNC(=O)[C@H](CCCCN)n3cc(C[C@@H](C)CC)nn3)CC2)n1`: the IC50 was 20 µM.

For `CN(O)/C=c1/ccc2c(n1)C(=O)C=CC=2`, the IC50 is 19.5 µM.

`O=C(N/N=C/c1cc(Br)ccc1O)c1ccccc1Cl`: the IC50 was 112 µM.

As for `C#CCOCCOCCOCCNc1nc(N2CCN(C(=O)[C@H](Cc3cc4ccccc4[nH]3)n3cc([C@@H](N)CC(C)C)nn3)CC2)nc(N2CCN(C(=O)[C@H](Cc3cc4ccccc4[nH]3)n3cc([C@@H](N)CC(C)C)nn3)CC2)n1`, the IC50 is 19.1 µM.

As usually defined, the IC50 is the concentration that gives 50% inhibition.
